{
  "source": "patent US11466044B2",
  "about": "(WAYNE STATE UNIVERSITY, priority 2017, dated 2022)",
  "key": {"[1]": {"test_system": "Acinetobacter baumannii pittii AG225", "assay": "MIC by broth microdilution, Acinetobacter baumannii", "assay_type": "cell-based", "conditions": "strain AG225 Acinetobacter baumannii pittii"}, "[2]": {"test_system": "Klebsiella pneumonia AG215", "assay": "MIC by broth microdilution, Klebsiella pneumonia", "assay_type": "cell-based", "conditions": "strain AG215 Klebsiella pneumonia"}, "[3]": {"test_system": "Enterobacter cloacae AG290", "assay": "MIC by broth microdilution, Enterobacter cloacae", "assay_type": "cell-based", "conditions": "strain AG290 Enterobacter cloacae"}, "M. smegmatis SZ380": {"test_system": "M. smegmatis SZ380", "assay": "MIC by broth microdilution, M. smegmatis", "conditions": "strain SZ380 Mycobacterium smegmatis"}, "[4]": {"test_system": "E coli carrying specific resistance determinants", "assay": "MIC by broth microdilution, E coli carrying specific resistance determinants", "assay_type": "cell-based"}, "E coli wild type": {"test_system": "E coli wild type", "assay": "MIC by broth microdilution, wild type E coli", "assay_type": "cell-based", "conditions": "for MIC AG212 E. coli: strain AG212 E. coli (ATCC25922)"}, "N. gonorrhoeae": {"test_system": "N. gonorrhoeae", "assay": "Disk diffusion, N. gonorrhoeae", "assay_type": "cell-based", "conditions": "25 nmol"}, "MRSA": {"test_system": "MRSA", "assay": "MIC by broth microdilution, MRSA isolates", "assay_type": "cell-based", "conditions": "Table 1 (Example 2)"}, "P aeruginosa": {"test_system": "P aeruginosa", "assay": "MIC by broth microdilution, P aeruginosa isolates", "assay_type": "cell-based, Pseudomonas aeruginosa", "conditions": "for MIC AG220 P. aerugin: strain AG220 Pseudomonas aeruginosa ATCC27853"}},
  "data": [
    {"compound": "CC(N)C1OC(OC2C(N)CC(N)C(O)C2OC2OC(CO)C(OC3OC(CN)C(O)C(O)C3N)C2O)C(N)C(O)C1O", "note": "(stereo not shown) [Compound 166]", "values": [
      {"measurement": "MIC AG225 A. baumannii", "setting": "[1]", "value": 1, "unit": "µg/mL"},
      {"measurement": "MIC AG215 K. pneumon", "setting": "[2]", "value": "0.25 to 0.5", "unit": "µg/mL"},
      {"measurement": "MIC AG290 E. cloacae", "setting": "[3]", "value": 0.5, "unit": "µg/mL"},
      {"measurement": "MIC SZ380 M. smegmatis", "setting": "M. smegmatis SZ380", "value": "0.125 to 0.25", "unit": "µg/mL"},
      {"measurement": "MIC50 E coli AG09 AAC(6′)", "setting": "[4]; AG09 AAC(6′), Table 2A (Example 2)", "value": 0.5, "unit": "µg/mL"},
      {"measurement": "MIC50 E coli AG036 ANT(4′,4″)", "setting": "[4]; Table 2A (Example 2)", "value": 16, "unit": "µg/mL"},
      {"measurement": "MIC50 E coli AG036 ANT(4′,4″)", "setting": "[4]; Table 2B (Example 2)", "value": 16, "unit": "µg/mL"},
      {"measurement": "MIC50 E coli AG037 APH(3′)-III", "setting": "[4]; AG037 APH(3′)-III, Table 2B (Example 2)", "value": ">64", "unit": "µg/mL"},
      {"measurement": "MIC50 E coli AG037 APH(3′,5″)", "setting": "[4]; AG037 APH(3′,5″), Table 2A (Example 2)", "value": ">64", "unit": "µg/mL"},
      {"measurement": "MIC50 E coli AG103 armA", "setting": "[4]; AG103 armA, Table 2B (Example 2)", "value": 1, "unit": "µg/mL"},
      {"measurement": "MIC50 E coli pH414 AAC(6′)-I", "setting": "[4]; pH414 AAC(6′)-I, Table 2B (Example 2)", "value": 0.5, "unit": "μg/ml"},
      {"measurement": "MIC50 E coli pH415 AAC(6′)-II", "setting": "[4]; pH415 AAC(6′)-II, Table 2B (Example 2)", "value": "1-2 μg/ml"},
      {"measurement": "MIC50 E coli pH421 APH(3′)-I", "setting": "[4]; pH421 APH(3′)-I, Table 2B (Example 2)", "value": ">32", "unit": "μg/ml"},
      {"measurement": "MIC50 E coli pH422 APH(3′)-II", "setting": "[4]; pH422 APH(3′)-II, Table 2B (Example 2)", "value": ">32", "unit": "μg/ml"},
      {"measurement": "MIC50 E coli pH423 APH(3)-VI", "setting": "[4]; pH423 APH(3)-VI, Table 2B (Example 2)", "value": ">32", "unit": "μg/ml"},
      {"measurement": "MIC50 E coli pH432 ANT(4′)", "setting": "[4]; pH432 ANT(4′), Table 2B (Example 2)", "value": 0.5, "unit": "μg/ml"},
      {"measurement": "MIC50 E coli BM13 (AG06) wt", "setting": "E coli wild type; BM13 (AG06) wt, Table 2A (Example 2)", "value": "0.5 to 1", "unit": "µg/mL"},
      {"measurement": "MIC50 E coli pH430 WT", "setting": "E coli wild type; pH430 WT, Table 2B (Example 2)", "value": 0.5, "unit": "μg/ml"},
      {"measurement": "MIC50 E coli AG01", "setting": "E coli wild type; strain AG01, Table 1 (Example 2)", "value": 2, "unit": "µg/mL"},
      {"measurement": "MIC50 E coli AG03", "setting": "E coli wild type; strain AG03, Table 1 (Example 2)", "value": 2, "unit": "µg/mL"},
      {"measurement": "MIC50 E coli AG55", "setting": "E coli wild type; strain AG55, Table 1 (Example 2)", "value": 2, "unit": "µg/mL"},
      {"measurement": "MIC AG212 E. coli", "setting": "E coli wild type", "value": 1, "unit": "µg/mL"},
      {"measurement": "Disk diffusion 25 nmol N. gonorrhoeae", "setting": "N. gonorrhoeae", "value": 12, "unit": "mm"},
      {"measurement": "MIC50 MRSA AG38", "setting": "MRSA; strain AG38", "value": 2, "unit": "µg/mL"},
      {"measurement": "MIC50 MRSA AG39", "setting": "MRSA; strain AG39", "value": ">128", "unit": "µg/mL"},
      {"measurement": "MIC50 MRSA AG42", "setting": "MRSA; strain AG42", "value": ">128", "unit": "µg/mL"},
      {"measurement": "MIC50 MRSA AG44", "setting": "MRSA; strain AG44", "value": 1, "unit": "µg/mL"},
      {"measurement": "MIC50 P aeruginosa AG31", "setting": "P aeruginosa; strain AG31, Table 1 (Example 2)", "value": "≥128", "unit": "µg/mL"},
      {"measurement": "MIC50 P aeruginosa AG32", "setting": "P aeruginosa; strain AG32, Table 1 (Example 2)", "value": 128, "unit": "µg/mL"},
      {"measurement": "MIC50 P aeruginosa AG33", "setting": "P aeruginosa; strain AG33, Table 1 (Example 2)", "value": "≥128", "unit": "µg/mL"},
      {"measurement": "MIC50 P aeruginosa AG86", "setting": "P aeruginosa; strain AG86, Table 1 (Example 2)", "value": 16, "unit": "µg/mL"},
      {"measurement": "MIC AG220 P. aerugin", "setting": "P aeruginosa", "value": ">32", "unit": "µg/mL"}
    ]},
    {"compound": "CCC[C@@H]1C(CO)O[C@H](O[C@@H]2C(N)C[C@@H](NC(=O)[C@@H](O)CCN)C(O)[C@H]2O[C@@H]2O[C@H](CO)[C@H](O[C@H]3C[C@@H](CN)[C@@H](O)C(O)C3N)C2O)[C@@H](N)C1O", "note": "(stereo partly shown) [Compound 187]", "values": [
      {"measurement": "MIC AG225 A. baumannii", "setting": "[1]", "value": 2, "unit": "µg/mL"},
      {"measurement": "MIC AG215 K. pneumon", "setting": "[2]", "value": 0.5, "unit": "µg/mL"},
      {"measurement": "MIC AG290 E. cloacae", "setting": "[3]", "value": "0.5 to 1", "unit": "µg/mL"},
      {"measurement": "MIC AG163 E. coli APH(3′)-I", "setting": "[4]; clinical isolate AG163 APH(3′)-I, Table 2 (Example 4)", "value": 2, "unit": "µg/mL"},
      {"measurement": "MIC AG166 E. coli APH(3′)-II", "setting": "[4]; clinical isolate AG166 APH(3′)-II, Table 2 (Example 4)", "value": 2, "unit": "µg/mL"},
      {"measurement": "MIC AG037 E. coli APH(3′)-III", "setting": "[4]; engineered strain AG037 APH(3′)-III, Table 2 (Example 4)", "value": 8, "unit": "µg/mL"},
      {"measurement": "MIC pH421 E. coli APH(3′)-I", "setting": "[4]; engineered strain pH421 APH(3′)-I, Table 2 (Example 4)", "value": "4-8 μg/ml"},
      {"measurement": "MIC pH422 E. coli APH(3′)-II", "setting": "[4]; engineered strain pH422 APH(3′)-II, Table 2 (Example 4)", "value": "0.5-1 μg/ml"},
      {"measurement": "MIC pH423 E. coli APH(3′)-VI", "setting": "[4]; engineered strain pH423 APH(3′)-VI, Table 2 (Example 4)", "value": 1, "unit": "μg/ml"},
      {"measurement": "MIC AG160 E. coli WT", "setting": "E coli wild type; clinical isolate AG160 WT, Table 2 (Example 4)", "value": 2, "unit": "µg/mL"},
      {"measurement": "MIC pH430 E. coli WT", "setting": "E coli wild type; engineered strain pH430 WT, Table 2 (Example 4)", "value": "0.5-1 μg/ml"},
      {"measurement": "MIC AG212 E. coli", "setting": "E coli wild type", "value": 2, "unit": "µg/mL"},
      {"measurement": "Disk diffusion 25 nmol N. gonorrhoeae", "setting": "N. gonorrhoeae", "value": 11, "unit": "mm"},
      {"measurement": "MIC AG220 P. aerugin", "setting": "P aeruginosa", "value": "2 to 4", "unit": "µg/mL"}
    ]}
  ]
}
